Tests used:
KRas G12C = KRas G12C (Homo sapiens, UniProt P01116, G12C); experiment: Cellular inhibition of KRas G12C measured by Phospho-ERK in NCI-H358 cells; format: cell-based; settings: pERK(Thr202/Tyr204) normalized with GAPDH, NCI-H358 cells, 3 hours; read-out: IC50
Procedure, shortened: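 Readout is pERK(Thr202/Tyr204) immunofluorescence normalized to GAPDH, expressed as percent of DMSO control and fitted with a 4-parameter curve for IC50. Attached NCI-H358 cells received compound for 3 hours in 0.5% DMSO, followed by fixation and methanol permeabilization.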

[1] = In vitro stability in human whole blood; format: in vitro ADME; settings: male, whole blood diluted to 50% with PBS, pH 7.4, human whole blood diluted to 50% with PBS, 5 μM, 37° C., 240-minute incubation, read-out: Compound Half-life
Source text: Materials: The following reagents were used as received: acetonitrile (HPLC grade, Burdick & Jackson, Madison, Wis.), phosphate buffered saline (PBS), pH 7.4 (Sigma-Aldrich, Co., St. Louis, Mo.), water (HPLC grade, JT Baker, Phillipsburg, N.J.), DMSO (EM Science, Merck KGaA, Darmstadt, Germany) and isopropanol (IPA, reagent grade, EMD Chemicals, Gibbstown, N.J.). Propantheline and esmolol (Sigma-Aldrich) were used as the positive control compounds in the assay. Diazepam (Sigma-Aldrich) was used as an internal standard for quantitation. Human whole blood was obtained from BioIVT (Westbury, N.Y.) […]. All other reagents and solvents were of the highest analytical grade supplied by Sigma (St. Louis, Mo.) and were used as received.
Blood Incubations: The in vitro stability of representative KRas G12C inhibitor compounds of the present invention in the presence whole blood was conducted in the following manner. Esmolol or propantheline, which are known to undergo ester hydrolysis by esterases in blood and plasma, were used as the positive controls in the assays. A 10 mM stock solution of propantheline, esmolol, or a compound of the present invention in DMSO was diluted to 500 μM with DMSO. Aliquots of whole blood (600 μL), in triplicate, were placed in the appropriate wells of a polypropylene 96-deep well plate (Axygen Scientific, Union City, Calif.). The blood was diluted to 50% using PBS, pH 7.4 (600 μL). The diluted blood was pre-incubated for 15 minutes at 37° C. Each well was dosed with 12 μL of the 500 μM DMSO stock simultaneously for a final test concentration of 5 μM. The plates were mixed at 600 rpm for 10 seconds on a plate shaker (IKA MTS 2/4 Digital Microtiter Shaker, VWR). Aliquots of 100 μL from each well of whole blood were transferred to three separate 96-deep well plates labeled 0, 60, or 240 minutes. At the end of each designated time point, the red blood cells were lysed with 100 μL of water, mixed at 600 rpm for one minute, and stopped with 800 μL of acetonitrile containing IS (0.625 μM diazepam). The plates were mixed on the plate shaker at 600 rpm for one minute and spun in a centrifuge at 2095×g for 7 minutes at room temperature using an Allegra benchtop centrifuge (Beckman Coulter, Fullerton, Calif.). Supernatant (100 μL) was transferred to a shallow 96-well plate (Costar) using a liquid sample handling system (Apricot, Perkin-Elmer, Boston, Mass.). The addition of 100 μL of water was added to each sample of supernatant for a final volume of 200 μL. The plates were sealed and the contents of each well were analyzed by LC-MS/MS.
Analytical quantitation: The LC-MS/MS system was comprised of an HTS-PAL autosampler (Leap Technologies, Carrboro, N.C.), an HP1200 HPLC (Agilent, Palo Alto, Calif.), and an API4000 triple quadrupole mass spectrometer (PE Sciex, a division of Applied Biosystems, Foster City, Calif.). […] The total run time, including re-equilibration, for a single injection was 2 minutes. Mass spectrometric detection of the analytes was accomplished using the ESI ionization mode. Ion current was optimized during infusion of a stock solution of propantheline, esmolol, or the representative test compound. Analyte responses, including the IS were measured by multiple reaction monitoring (MRM) of transitions unique to each compound.
Calculations: Data were acquired and peak areas were calculated for test compounds and the internal standard using Analyst 1.6.2 software (Sciex). The mean peak area ratios were calculated by averaging the peak area ratios (n=3) of each test compound and the IS for each sample.
Peak area tables were exported to BioAssay Enterprise (CambridgeSoft, Cambridge, Mass.), where the average analyte-to-internal standard peak area ratios were used to calculate percent remaining (% REM) and half-life (t1/2). Percent remaining (f) was calculated by determining the ratio of the peak area ratio at each time point to the peak area ratio of the time-zero samples. […]

Sequence of KRas G12C (P01116 1-188 isoform P01116-2 G12C): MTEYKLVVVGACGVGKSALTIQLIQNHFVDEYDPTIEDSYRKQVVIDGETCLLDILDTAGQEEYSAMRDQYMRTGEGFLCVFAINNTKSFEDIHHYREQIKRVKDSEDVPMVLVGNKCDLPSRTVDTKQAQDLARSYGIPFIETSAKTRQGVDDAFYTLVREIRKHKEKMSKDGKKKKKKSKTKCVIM

Row | IC50 (KRas G12C) [nM] | half-life at 5 µM [1] [h] | Compound
1 | 0.1 to 1000 | > 33.3 | CN1CCC[C@H]1COc1nc2c(c(N3CCN(C(=O)/C=C/CN4CCC(F)C4)[C@@H](CC#N)C3)n1)CCN(c1cccc3cccc(Cl)c13)C2 (stereo partly drawn) [Example 480, 2-[(2S)-4-[7-(8-chloro-1-naphthyl)-2-[[(2S)-1-methylpyrrolidin-2-yl]methoxy]-6,8-dihydro-5H-pyrido[3,4-d]pyrimidin-4-yl]-1-[(E)-4-(3-fluoropyrrolidin-1-yl)but-2-enoyl]piperazin-2-yl]acetonitrile]
2 | 0.1 to 1000 | > 33.3 | CN1CCC[C@H]1COc1nc2c(c(N3CCN(C(=O)/C=C/CF)[C@@H](CC#N)C3)n1)CCN(c1cccc3cccc(Cl)c13)C2 [Example 479, 2-[(2S)-4-[7-(8-chloro-1-naphthyl)-2-[[(2S)-1-methylpyrrolidin-2-yl]methoxy]-6,8-dihydro-5H-pyrido[3,4-d]pyrimidin-4-yl]-1-[(E)-4-fluorobut-2-enoyl]piperazin-2-yl]acetonitrile]
3 | 0.1 to 1000 | 3.33 to 16.7 | C=CC(=O)N1CCN(c2nc(OC[C@@H]3CCCN3C)nc3c2CCN(c2cccc4cccc(C)c24)C3)C[C@@H]1CC#N [Example 359, 2-[(2S)-4-[7-(8-methyl-1-naphthyl)-2-[[(2S)-1-methylpyrrolidin-2-yl]methoxy]-6,8-dihydro-5H-pyrido[3,4-d]pyrimidin-4-yl]-1-prop-2-enoyl-piperazin-2-yl]acetonitrile]
4 | > 1000 | > 33.3 | C=C(OC)C(=O)N1CCN(c2nc(OC[C@@H]3CCCN3C)nc3c2CCN(c2cccc4cccc(C)c24)C3)C[C@@H]1CC#N [Example 512, 2-[(2S)-1-(2-methoxyprop-2-enoyl)-4-[7-(8-methyl-1-naphthyl)-2-[[(2S)-1-methylpyrrolidin-2-yl]methoxy]-6,8-dihydro-5H-pyrido[3,4-d]pyrimidin-4-yl]piperazin-2-yl]acetonitrile]

From patent US10689377B2 (Mirati Therapeutics, Inc., priority 2017, dated 2020)
